Assay results published in patent publication US8410170B2, “Use of isothiocyanates compounds in treating prostatic diseases and skin cancer” (Wuxi JC Pharmaceutical Technology Co., Ltd., priority 2005, dated 2013).

What was measured:
transcription factor Sp1 = test: Sp1-luc luciferase activity assay in transfected LNCaP AD cells; type: cell-based, human; details: 24 hrs
Source text: The Sp1-luc and mtSp1-luc contain three tandem repeats of consensus Sp1 sites driving the luciferase gene and its mutant. […] Effectene transfection reagent and luciferase assay kit were acquired from Qiagen (Valencia, Calif., USA) and Promega (Madison, Wis., USA). Reagents for protein electrophoresis were purchased from Bio-Rad company (USA). The other chemicals were purchased from Sigma (St. Louis, Mo.) otherwise as indicated. […] (Gao, M., Ossowski, L., and Ferrari, A. C. Activation of Rb and decline in androgen receptor protein precede retinoic acid-induced apoptosis in androgen-dependent LNCaP cells and their androgen-independent derivative. J Cell Physiol, 179: 336-346, 1999). The AD and AI cells were maintained in RPMI-1640 with 10% fetal bovine serum (FBS) and charcoal stripped fetal bovine serum, penicillin-streptomycin for incubation at 5% CO2 and 37° C. respectively. […] After incubation for 24 hrs at 5% CO2 and 37° C., the cells were transfected with 1 μg/dish of SP1-luciferase gene (Sp1-luc), or its mutant mtSp1-luc using Effectene (Qiagen, Valencia, Calif.) as the transfection reagent. […] The cells were collected, washed, lysed, and the lysates were used for luciferase activity assay using Promega luciferase assay system.

LNCaP AI = test: MTT growth inhibition, hormone independent LNCaP AI; type: cell-based; details: Homo sapiens, LNCaP, 168 h, read-out: IC50, growth inhibition
Source text: The human prostate cancer cell line LNCaP AD was purchased from the American Type Culture Collection. LNCaP AI cell line was derived from LNCaP cells using a method described previously by Gao et al. (Gao, M., Ossowski, L., and Ferrari, A. C. Activation of Rb and decline in androgen receptor protein precede retinoic acid-induced apoptosis in androgen-dependent LNCaP cells and their androgen-independent derivative. J Cell Physiol, 179: 336-346, 1999). The AD and AI cells were maintained in RPMI-1640 with 10% fetal bovine serum (FBS) and charcoal stripped fetal bovine serum, penicillin-streptomycin for incubation at 5% CO2 and 37° C. respectively.
MTT: MTT and SRB method were used to determine the effects of various isothiocyanates on cell growth as described previously (Kreis, Budman et al, 1997). Briefly, human prostate cancer cell line LNCaP grown exponentially were aliquoted into 96-well plates at a density of 2500 cells/200 μl per well. Twenty-four hrs after the incubation, the cells were exposed for seven days to serial dilutions of indicated isothiocyanate or paclitaxel. […] The absorbance was measured at wavelength 540 nm. The percent of cell survival (T/C%) were calculated based on the results of test groups to that of the control group. […]

## S=C=NCCc1ccccc1 [PEITC, phenethyl isothiocyanate]
Transcription factor Sp1
  luciferase activity of Sp1-luc transfected gene: significantly decreased
LNCaP AI
  IC50: 600 nM
